Results on 3 molecules are retold here after paper PMC4601594, “An active site–tail interaction in the structure of hexahistidine-tagged Thermoplasma acidophilum citrate synthase” (Acta Crystallographica. Section F, Structural Biology …, 2015).

In series [1] the target is T1, citrate synthase (TpCSH6) (Thermoplasma acidophilum, UniProt P21553).
T1 construct: gene gltA; full-length TpCS (lacking N-terminal Met) with C-terminal His6 tag (TpCSH6)
T1 sequence (P21553 2-385): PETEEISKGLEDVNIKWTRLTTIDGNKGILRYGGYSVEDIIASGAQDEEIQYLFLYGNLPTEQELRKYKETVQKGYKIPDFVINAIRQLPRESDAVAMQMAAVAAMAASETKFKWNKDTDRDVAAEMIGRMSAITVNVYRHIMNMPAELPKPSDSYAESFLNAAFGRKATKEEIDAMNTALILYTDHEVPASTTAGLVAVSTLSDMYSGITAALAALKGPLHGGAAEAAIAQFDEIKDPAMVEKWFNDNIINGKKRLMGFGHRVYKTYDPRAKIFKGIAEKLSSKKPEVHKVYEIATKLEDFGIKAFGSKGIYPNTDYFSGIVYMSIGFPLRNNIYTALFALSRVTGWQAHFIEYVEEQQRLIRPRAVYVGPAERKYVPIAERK
The series is described as follows: fluorescence titration of the TpCSH6–OAA complex (CitMX formation); also competitive inhibition versus AcCoA, Ki =[…]. The class given is binding.

The target of series [2] is T1, citrate synthase (TpCSH6). The series is described as follows: fluorescence titration (Trp348 quenching). The class given is binding.
Series [3] addresses T2, citrate synthase (TpCSH6-H222Q) (Thermoplasma acidophilum, UniProt P21553, H223Q).
T2 construct: gene gltA; full-length TpCS with C-terminal His6 tag, H222Q mutant
The series is described as follows: fluorescence titration (Trp348 quenching). It is filed as binding.

Substrate in the series “purified protein”: CC(=O)SCCNC(=O)CCNC(=O)[C@H](O)C(C)(C)COP(=O)(O)OP(=O)(O)OC[C@H]1O[C@@H](n2cnc3c(N)ncnc32)[C@H](O)[C@@H]1OP(=O)(O)O
The series is described as follows: purified protein. To be noted: oxaloacetate (co-substrate) AcCoA binding site (His222, Asp317).

Broadly, the Kd is a measure of binding affinity in units of concentration. Lower therefore signals a tighter complex. One may read the Km as the concentration of substrate that gives half-maximal velocity.

T2 sequence (P21553 2-385 H223Q): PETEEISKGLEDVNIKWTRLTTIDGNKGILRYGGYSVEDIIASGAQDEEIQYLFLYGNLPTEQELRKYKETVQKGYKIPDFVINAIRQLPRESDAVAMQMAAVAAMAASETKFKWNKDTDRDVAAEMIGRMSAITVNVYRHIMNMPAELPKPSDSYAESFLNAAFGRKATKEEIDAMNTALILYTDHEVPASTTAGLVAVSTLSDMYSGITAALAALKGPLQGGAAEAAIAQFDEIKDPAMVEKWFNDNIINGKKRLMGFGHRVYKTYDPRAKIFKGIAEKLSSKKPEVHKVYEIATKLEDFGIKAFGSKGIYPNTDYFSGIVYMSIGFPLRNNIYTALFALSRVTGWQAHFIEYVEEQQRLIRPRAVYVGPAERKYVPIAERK

`CC(=O)CCCNC(=O)CCNC(=O)[C@H](O)C(C)(C)COP(=O)(O)OP(=O)(O)OC[C@H]1O[C@@H](n2cnc3c(N)ncnc32)[C@H](O)[C@@H]1OP(=O)(O)O` [AcMX, dethiaacetyl-CoA]: the Kd in series [1] was 1500 nM. In the case of `O=C(O)CC(=O)C(=O)O` [OAA, oxaloacetate], the Kd in series [2] came out at 760 nM; in series [3], 19000 nM.

B1: citrate synthase (TpCSH6) (Thermoplasma acidophilum DSM 1728) (protein)
chain: T1 sequence (P21553 2-385)
For the molecule B1, the Michaelis constant (Km) in the series “purified protein” was found to be 3.0 µM.
